Data on one compound can be found in patent US10774084B2, “Adenine derivatives and their use as UV-photoprotective agents” (UNIVERZITA PALACKEHO V OLOMOUCI, priority 2015, dated 2020).

Test [1] relates to Triticum aestivum cv. Hereward leaf segments. Briefly: Senescence bioassay on detached wheat leaf segments (chlorophyll retention). Here is the method:
Seeds of winter wheat, Triticum aestivum cv. Hereward, were washed under running water for 24 hours and then sown on vermiculite soaked with Knop's solution. They were placed in the growth chamber at 25° C. with a 16/8 h light period at […]. After 7 days, the first leaf was fully developed and the second leaf had started to grow. A tip section of the first leaf, approximately 35 mm long, was removed from 5 seedlings and trimmed slightly to a combined weight of 100 mg. The basal ends of the five leaf tips were placed in the wells of a microtiter polystyrene plate containing 150 μL of the tested derivative solution each. The entire plate was inserted into a plastic box lined with paper tissues soaked in distilled water to prevent leaf sections from drying out. After 96 h incubation in the dark at 25° C., the leaves were removed and chlorophyll extracted by heating at 80° C. for 10 min in 5 mL of 80% ethanol (v/v). The sample volume was then restored to 5 mL by the addition of 80% ethanol (v/v). The absorbance of the extract was recorded at 665 nm. In addition, chlorophyll extracts from fresh leaves and leaf tips incubated in deionised water were measured. The results are means of five replicates and the entire test was repeated twice. […] The compounds to be tested were dissolved in dimethylsulfoxide (DMSO) and the solution brought up to 10^−3 M with distilled water. […] The activity obtained for 10^−4 M of BAP was postulated as 100%. Kinetin was used as the second standard. Newly prepared compounds generally exceeded the efficiency of standard (BAP) by 10% of its activity (Tab. 5).

The test system of another test is HaCaT. Put plainly: Calcein AM cytotoxicity assay. It is filed as cell-based. Conditions: Homo sapiens, 72 hrs. The text has this:
(§1) One of the parameters used as the base for cytotoxic analysis is metabolic activity of viable cells. Microtiter assay, which uses the Calcein AM, is now widely used to quantify cell proliferation and cytotoxicity. The quantity of […] Calcein AM corresponds to the number of viable cells in culture. The cell lines of breast cancer (MCF-7), human erythromleukemia (K562), BJ human fibroblast cells (BJ) and human keratinocyte cell line (HaCaT) were used for routine screening of cytotoxicity of the compounds. The cells were maintened in Nunc/Corning 80 cm^2 plastic bottles and grown in media for cell culture (DMEM containing 5 g/l of glucose, 2 mM of glutamin, 100 U/ml of penicilin, 100 μg/ml of streptomycin, 10% of fetal bovine serum and sodium hydrogencarbonate). Cell suspensions were diluted according to cell types and according to expected final cell density (10^4 of cells per well according to characteristics of cell growth), pippeted 80 μl of cell suspension on 96-well microtiter plates. Innoculates were stabilized by 24 hrs preincubation at 37° C. in CO2. Particular concentrations of tested compounds were added in time zero as 20 μl aliquotto wells of microtiter plates. Usually, the compounds were diluted into six concentrations in four-fold dilution series. In routine testing, the highest well concentration was 166.7 μM, of change dependent on the substance. All drug concentrations were examined in duplicates. The incubation of cells with tested derivatives lasted 72 hrs at 37° C., 100% humidity and in the atmosphere of CO2. At the end of the incubation period, the cells were tested and analysed according to the addition of Calcein AM (Molecular probes) solution and the incubation lasted for next 1 hour. Fluorescence (FD) was measured using Labsystem FIA reader Fluorskan Ascent (Microsystems). The survival of tumor cells (The tumor cell survival-TCS) was counted according to equation: […](FDwell with derivative/FDcontrol well)×100%. The value of GI50, that is equal to the concentration of compound at which 50% of tumour cells are terminated. To evaluate the antitumor activity was tested toxicity of new derivatives on panel of cell lines of different histogenetic and species origin (Tab. 6, G150 concentration given in μM). […] Effective derivatives killed tumor cells in concentrations close to 0.1 to 50. None of the newly prepared compounds only reached the value.

In a further test the test system is K562. Put plainly: Calcein AM cytotoxicity assay. Conditions: Homo sapiens, 72 hrs. Type of test: cell-based.
Description: as §1

In a further test the test system is MCF-7. Briefly: Calcein AM cytotoxicity assay. Type of test: cell-based. Conditions: Homo sapiens, MCF7, 72 hrs.
Description: as §1

For test [2], the system named is BJ human fibroblast cells. Briefly: Calcein AM cytotoxicity assay. It is filed as cell-based. Conditions: 72 hrs.
Description: as §1

A word on the GI50: it is the concentration that inhibits growth by half. On to `c1coc(CNc2ncnc3c2ncn3C2CCCO2)c1` (stereo not drawn) [6-furfurylamino-9-(tetrahydrofuran-2-yl)purine], for which the maximum effective concentration in test [1] (96 h in the dark) was 10^−4 mol · l^−1. Besides, the “activity (%) [10^−4 mol · l^−1 BAP = 100%]” value in test [1] (at maximum effective concentration) is 114 ± 3%. The GI50 (in the test on HaCaT; in the test on K562; with MCF-7; in test [2]) was more than 100 µM throughout.
